Usually melting point stands for the temperature of the solid-liquid transition.

Take `COc1cc(-c2cccs2)ccc1C(=O)/C=C/c1ccc(C(=O)O)cc1`: the melting point was 193 to 195 °C.
As for `Cn1nc(-c2cc(S(=O)(=O)Cl)c(Cl)cc2F)c(Cl)c1C(F)(F)F`, the figure is 116 to 117 °C; as for `CC(C)(O)CNC(=O)CC1CN=C(c2cc3cc(Oc4ccc(S(C)(=O)=O)nc4)cc(OC4CCOCC4)c3[nH]2)S1` (stereo not drawn), 195 to 196 °C; as for `CCC1(CC)CC(=O)c2cc(C#N)ccc2O1`, 71 to 72 °C.
In turn, `COc1cc(OC)c(OC)c(OC)c1OC` yielded a melting point of 59 to 61 °C.
In the case of `CSc1nnc(-c2nn(C)c(C)c2S(N)(=O)=O)o1`, the melting point was 156 to 158 °C.
Take `O=C(O)C1Cc2c(c(Cl)cc3c(-c4ccccc4)noc23)O1` (stereo not drawn): the melting point is 221 to 224 °C.
For the compound `Nc1nccnc1C(=O)NCCCn1ccnc1`, the melting point was 118 to 120 °C.
For `Cn1cnc2c(OC3SCC(O)C(O)C3O)cccc21` (stereo not drawn), the melting point came out at 180 °C.
Turning to `Cn1ccc2cc(NC(=O)c3cc4ccccc4n3Cc3cccc(C(F)(F)F)c3)ccc21`, the melting point was in the range of 189 to 190 °C.
Take `Cc1coc(-c2ccc(-c3ccccc3S(=O)(=O)Nc3onc(C)c3C)cc2)n1`: the melting point is 85 to 95 °C.
Consider `COc1cc(C(C)C)c2c(c1)S(=O)(=O)N(COc1cc(C#N)nn1-c1ccccc1)C2=O`, for which the melting point fell in the range of 114 to 116 °C.
Take `COc1cc(Nc2c(C#N)cnc3cc(-c4cncc(CN5CCOCC5)c4)ccc23)c(Cl)cc1Cl`: the melting point was 141 to 143 °C.
`Cc1c(C(F)(F)F)cnn(-c2cc(OCC3CC3)c(Cl)cc2F)c1=O` registered a melting point of 82.3 °C.
As for `Cc1cccc(COc2ccc(C#N)cc2Cl)c1`, the figure is 73 to 75 °C.
Regarding `O=Cc1ccc(OC(F)F)c(OCC2CC2)c1`, the melting point is 115 to 116 °C.
To `CS(=O)(=O)NCc1cccc(-c2nc(=O)c3ccccc3s2)n1` belongs 188 to 190 °C.
In the case of `C#CC1CC2(CC#CC)C(O)CCC2C2C=CC3=CC(=O)CCC3C12` (stereo not drawn), the melting point lay within 195 to 198 °C.
In turn, `CCn1cc(C(=O)O)c(=O)c2cc(F)c(-n3ccnc3)c(F)c21` gave a melting point of 283 to 288 °C.
For `O=C(c1ccc(CNc2nc(-c3ccccc3)nc3ccccc23)cc1)N1CCN(c2ncc(Cc3ccccc3)cn2)CC1`, the melting point was in the range of 216 to 217 °C.
`O=S1(=O)NCc2ccccc2N1` gave a melting point of 178 to 180 °C.
Compound `c1ccc(CN2CCN(c3ccnc4[nH]ccc34)CC2)cc1` had a melting point of 175 °C.
To `Cc1nc2cc(C3CCc4cncn43)ccc2[nH]1` (stereo not drawn) belongs 230 °C; to `O=C1Cc2cc(CCN3CCN(c4nsc5ccccc45)CC3)c(Cl)cc2N1`, 218 to 220 °C; to `O=[N+]([O-])c1ccc2[nH]cc(C3=CCNCC3F)c2c1` (stereo not drawn), 205 to 207 °C.
In turn, `c1ccc(COc2ccc(Nc3ccccn3)cc2)cc1` gave a melting point of 110 to 112 °C.
`NC(=O)c1sc2nc(N3CCC(NCC(O)c4ccc5ccccc5n4)CC3)cc(C(F)(F)F)c2c1N` (stereo not drawn): the melting point lay within 198 to 201 °C.
As for `CCN(CC)CCC1CCN(CCNC(=O)N2c3ccccc3C(=O)Nc3cccnc32)CC1`, the figure is 170 to 172 °C; as for `CCSc1ccc(OC(C)c2ccnc3ncnn23)cc1` (stereo not drawn), 65 to 67 °C; as for `Cc1cccc(C)c1NC(=O)CCCl`, 131 °C.
Compound `O=C(O)c1ccc2c(c1)Sc1ccccc1CC2` yielded a melting point of 196 to 198 °C.
For the compound `O=C(CCCC(Cc1c[nH]c2ccccc12)(NC(=O)OC1C2CC3CC(C2)CC1C3)C(=O)NCCc1ccccc1)OCc1ccccc1` (stereo not drawn), the melting point is 115 to 136 °C.
As for `COC(=O)C1CC(C#N)(c2cccs2)CCC1=O` (stereo not drawn), the figure is 76 to 78 °C.
For the compound `CC1(C)C(=O)Nc2cc(C(=O)Nc3ccc(N)cc3)ccc21`, the melting point lay in the range of 216 to 218 °C.
To `Cc1cc(Oc2ccc(Cl)cc2Cl)ccc1C#N` belongs 52 to 55 °C; to `N#CCc1ccc(CCOc2ccc([N+](=O)[O-])cc2)nc1`, 94 to 95 °C; to `CC1=C(C(=O)O)C(c2cccc([N+](=O)[O-])c2)NC(=N[N+](=O)[O-])N1` (stereo not drawn), 236 to 238 °C.
On to `COC(=O)CCCc1cc2nc(Cl)ccc2n1S(=O)(=O)c1cccc(N(C)C)c1`, for which the melting point fell in the range of 96 to 97 °C.
In turn, `Cn1cc(C(=O)O)c(=O)c2sc(-c3ccccc3)cc21` showed a melting point of 290 to 292 °C.
`Cc1cc2c(cc1C)C(=O)C(=O)N2` showed a melting point of 217 to 218 °C.
For the compound `Cc1cc(C)cc([PH](=O)c2cc(C)cc(C)c2)c1`, the melting point was determined as 82.4 °C.
In the case of `COc1cccc2c1CC(C(=O)NCCOc1ccc(C(=O)O)cc1)N2S(=O)(=O)c1ccc(-c2ccc(F)cc2F)cc1` (stereo not drawn), the melting point turned out to be 206 °C.
`C#CCNc1nc(N(C2CC(C)(C)N(O)C(C)(C)C2)C2CC(C)(C)N(O)C(C)(C)C2)nc(N(C2CC(C)(C)N(O)C(C)(C)C2)C2CC(C)(C)N(O)C(C)(C)C2)n1` yielded a melting point of 249 to 252 °C.
Turning to `COc1cccc(C=NNC(=O)OC(C)(C)C)c1`, the melting point lay within 136 to 137 °C.
`CS(=O)(=O)Oc1ccc2cc(CO)ccc2c1` returned a melting point of 96 to 98 °C.
`CC(=O)c1c(-c2cc(C)cs2)sc(-c2ccncc2)c1C` showed a melting point of 106 to 108 °C.
`O=C1Nc2cccnc2N(C(=O)CCC#CCN2CCCCC2)c2ccccc21` displayed a melting point of 197 °C.
Compound `CC1(C)OC(=S)Nc2ccc(-c3ccc(C#N)[nH]3)cc21` gave a melting point of 261 to 262 °C.
With `CCOC(=O)Cc1ccc(OCc2ccc3oc([N+](=O)[O-])c(-c4ccccc4)c3c2)cc1`, the melting point lay within 74 to 75 °C.
To `CCOC(=O)c1cnc2c(c1NCCN(C)C)NC(=O)CN2` belongs 183 to 185 °C; to `O=Cc1cnc2n1CCc1ccccc1C2=C1CCN(C2CCN(C(=O)c3cc(C(F)(F)F)cc(C(F)(F)F)c3)C(Cc3ccccc3)C2)CC1` (stereo not drawn), 126 °C; to `Cn1c(CCCO)nc2cccnc21`, above 300 °C.
In turn, `CC(=O)Nc1cc(C(=O)OC2OC(COC(=O)c3ccccc3)C(OC3OC4COC(c5ccncc5)OC4C(O)C3O)C(O)C2O)ccc1Cl` (stereo not drawn) had a melting point of 260 to 262 °C.
On to `C[Si](C)(Cn1cncn1)c1ccc(-c2ccccc2)cc1`, for which the melting point was 79 to 86 °C.
To `Nc1ccc(CS(=O)(=O)NCc2ccccc2)cc1` belongs 117 to 118 °C; to `Nc1c(-c2cc(Cl)ccc2O)c2c(Cl)cc(Cl)cc2[nH]c1=O`, 275 to 277 °C.
As for `O=CNc1ccccc1CCO`, the melting point fell in the range of 49 to 54 °C.
To `CCC(Oc1cc(Cl)cc(Cl)c1)C(=O)NCc1ccccc1C` (stereo not drawn) belongs 135 to 137 °C; to `CCC12CCC3C4CCC(=O)C=C4CCC3C1CCC2O` (stereo not drawn), 147 to 149 °C; to `NC(=O)N1C(=O)C(C(=O)c2cc(Cl)cs2)c2ncc(Cl)cc21` (stereo not drawn), above 250 °C.
`COC(C)(CC(=O)Nc1cccc(OC(=O)NC2CCCCC2)c1)OC` gave a melting point of 163 °C.
The compound `COc1ccc(S(=O)(=O)N2CCc3cccc(-c4ccc(C(F)(F)F)cc4)c32)cc1` registered a melting point of 180 to 181 °C.
Compound `Nc1c(Cl)cc(C(O)CNCCCCCCOCCOCCc2ccccn2)cc1Cl` (stereo not drawn) came in with a melting point of 45.5 to 46.5 °C.
